Assay results reported in patent publication US11344625B2, “Compositions having antifungal activity” (WAKO FILTER TECHNOLOGY Co., LTD., priority 2015, dated 2022).
In brackets after ≈: the same amount, converted by molar mass. Where two headings read alike, the source gives them in different places.

Legend:
[1] = system: Trichophyton mentagrophytes TIMM 2789; experiment: In vitro inhibition test for Trichophyton (pour-plate, agar); type: cell-based; details: cultured at 28° C.
Description: A clinical isolate, Trichophyton mentagrophytes TIMM 2789, held by the Teikyo University Medical Mycology Research Center was used as the Trichophyton. For the preculture process, this Trichophyton was extracted from low-temperature silica stock one week prior to the day of the test, and was cultured on a Sabouraud Dextrose Agar culture plate containing 50 μg/ml of chloramphenicol and 500 μg/ml of cycloheximide (such that these components were diluted to 1/10). This culturing was performed for one week at 28° C., and the bacteria were collected and used on the day of the test. The setting of the Trichophyton bacterial count was achieved by transferring the collected bacteria using a pour-plate method to a culture medium such that the final concentration was 10^3 cells/ml. In addition, the respective test samples were also transferred to a culture medium using a pour-plate method such that the final concentrations thereof were set to those shown in the table below. […] In the preparation, 1 ml of each test sample solution and 24 ml of RPMI-1640 culture medium were blended together, and prepared in a sterilized plastic Petri dish. The Trichophyton inoculation culture medium that was prepared in this manner was then cultured at 28° C. for four days, and the growth inhibitory effect of the mycelia after this culturing was observed and the properties thereof determined. The determinations were made both visually, and in the case of turbidity being present, by comparing the growth condition of the mycelia with a control (containing no test sample additives) via photomicrograph (at magnification ×40).
Results for the negativity and positivity of the bacteria obtained from each test sample are shown below in Table 6. Note that if the mycelial growth rate of the control is taken as 100%, then when the mycelial growth rate in the test sample is 0%, this is determined to be [−], while if the mycelial growth rate in the test sample is 1 to 20%, this is determined to be [+], and if the mycelial growth rate in the test sample is 21 to 90%, this is determined to be […]. Note that FIG. 15 and FIG. 16 are photographs showing states 7 days after colony formation of the Trichophyton in each test sample.

[2] = system: Candida albicans TIMM 1768; experiment: Oral candidiasis model in mice; type: in vivo, ICR strain mice; details: day 2
Description: Using ICR strain mice (males, 6 weeks old, Charles River Laboratories, Japan) as the experimental animals, these mice were subcutaneously injected with 100 mg/kg of prednisolone as an immunosuppressant on the day prior to the candidiasis inoculation. Additionally, tap water containing 15 mg/ml of chlortetracycline hydrochloride was made freely available starting from that same day. On the day of the innoculation, in order to keep the mice in a resting state, 14.4 mg/kg of chlorpromazine hydrochloride (manufactured by Wako Pure Chemical Industries, Ltd.) was intramuscularly administered in advance. The bacterial strain and culturing method that were used were the same as in the Examples as far as the previous paragraph, and the multiplied bacterial cells were suspended in an RPMI-1640 culture medium containing 2% calf serum so as to form a bacterial solution whose bacterial count was adjusted to 2×10^8 cells/ml. […] Two days after the inoculation the mouse was euthanized, and the tongue symptom score was evaluated in accordance with a reference. […] A fixed quantity of this was then coated onto a Candida GS agar plate, and was cultured at 37° C. for 20 hours. The number of colonies appearing after this time was then measured. The number of viable Candida bacteria CFU (colony forming units) recovered from the relevant individuals was then calculated from the number of colonies.

[3] = system: Malassezia pachydermatis; experiment: Anti-Malassezia fungal activity, agar dilution method; type: cell-based; details: for Determination (mycelial growth rate taking control as 100): 7 days at 32° C.
Description: 100 μL lots of the test bacterial solution adjusted to McFarland 1.0 were coated over this Agar plate and were cultured for seven days at 32° C. Thereafter, the growth rate of the bacteria thereon were compared with a control (i.e., an MLNA culture medium containing no test additives) and their properties were determined. […] Note that if the mycelial growth rate of the control is taken as 100%, then when the mycelial growth rate in the test sample is 0%, this is determined to be [−], while if the mycelial growth rate in the test sample is 1 to 20%, this is determined to be [+], and if the mycelial growth rate in the test sample is 21 to 90%, this is determined to be […].

[4] = system: Candida albicans TIMM 1768; experiment: Inhibition test for Candida mycelial growth (crystal violet, checkerboard for combinations); type: cell-based; details: for IC (at a 70% growth inhibitory concentration): checkerboard; for IC 70 (70% growth inhibitory concentration): alone, Candida mycelial growth; for improvement effect in the anticandidal activity against Candida mycelial growth: test reagent alone, concentration series
Description: A clinical isolate, Candida albicans TIMM 1768, held by the Teikyo University Medical Mycology Research Center was used as the Candida. This Candida was cultured for 20 hours at 37° C. on a Sabouraud Dextrose Agar culture plate. The multiplied bacterial cells were recovered, and then suspended in sterilized water so as to form Candida solutions whose bacterial count was adjusted to 5×10^3 cells/ml. Each sample was dissolved in advance in DMSO (dimethyl sulfoxide) so as to match the final concentration, and was then added to a 1/3 RPMI-1640 culture medium containing 2% calf serum so as to form sample solutions. 100 μL of both the sample solution (having a DSMO concentration in the culture medium of 0.5%) and the Candida bacterial solution were then placed respectively in each well of a 96-hole microplate (manufactured by Sumitomo Bakelite, Tokyo), and these were then cultured for three hours at 37° C. in a 5% carbon dioxide gas atmosphere. After three hours, the solutions in each well were discarded and the wells were cleaned. Subsequently, 200 μL of 1/3 RPMI-1640 was newly added to each well, and culturing was performed for 16 hours at 37° C. in a presence of 5% carbon dioxide gas. Once this culturing had ended, the solutions in each well were removed by suction, and the wells were washed using physiological saline. 200 μL of 70% ethanol was then injected so as to sterilize the Candida. After the ethanol had been removed, and the wells washed with tap water, 100 μL of a dye solution (i.e., a 0.1 M phosphate buffer containing 0.01% of dissolved crystal violet solution) was injected and left standing for 15 minutes. As a result, the Candida mycelia adhering to the surface of the wells were dyed.
After the wells were then washed with tap water so as to remove excess dye solution, 150 μL of […] containing 0.04 NHCL, and 50 μL of a 0.25% sodium dodecyl sulfate solution were then injected so as to free the coloring adhering to the bacterial cells. After the coloring had been freed, the plate was set in a multiscan photometer (i.e., a Multiskan FC, manufactured by Thermo Fisher Scientific Inc.), and the OD at 620 nm was measured in each well. The growth inhibition rate was then determined using the following formula. Growth inhibition rate (%)=(1−sample OD/subject OD)×100
The anticandidal activity synergistic effect provided by the combined use was evaluated using a checkerboard method. […] The experiment conditions and the measurement method and the like were the same as those employed for the mycelial growth test (i.e., Example 1).
The anticandidal activity synergistic effect obtained from a combined use was evaluated using a checkerboard method in the same way as in Example 2. […] The experiment conditions and the measurement method and the like were the same as those employed for the mycelial growth test (i.e., Example 1).
The anticandidal activity effect obtained from each test reagent was evaluated using a checkerboard method in the same way as in Example 2. […] The experiment conditions and the measurement method and the like were the same as those employed for the mycelial growth test (i.e., Example 1).

[5] = system: Trichophyton mentagrophytes TIMM 2789; experiment: In vitro inhibition test for Trichophyton (pour-plate, agar); type: cell-based; details: for MIC: Trichophyton mentagrophytes, read-out: MIC (minimum inhibitory concentration)
[6] = LYZOX used in combination with terpinen-4-ol
[7] = used in combination with decanoic acid
[8] = used in combination with terpinen-4-ol

LYZOX: complex formed by bonding lysozyme to chitosan (14000 Da) via a Maillard reaction; LYZOX is a registered trademark
Determination (mycelial growth rate taking control as 100) ([1]; 1 mg/ml): +++ (91 to 100%) | Determination (mycelial growth rate taking control as 100) ([1]; 2.5 mg/ml): ++ (21 to 90%) | Determination (mycelial growth rate taking control as 100) ([1]; 5 mg/ml): ++ (21 to 90%) | Determination (mycelial growth rate taking control as 100) ([1]; 10 mg/ml): − (0%) | tongue symptom score ([2]; L 20 mg/ml on tongue dorsum 3, 24, 27 h after inoculation): remarkable improvement effect | Determination (mycelial growth rate taking control as 100) ([3]; 0.05 mg/ml): +++ (91 to 100%) | Determination (mycelial growth rate taking control as 100) ([3]; 0.1 mg/ml): ++ (21 to 90%) | Determination (mycelial growth rate taking control as 100) ([3]; 0.5 mg/ml): − (0%) | Determination (mycelial growth rate taking control as 100) ([3]; 1 mg/ml): − (0%) | anti-Malassezia fungal activity against Malassezia fungi ([3]; summary of agar dilution and disk experiments): exhibited anti-Malassezia fungal activity | Candida growth rate ([4]; 250 μg/ml): 0.9% | IC (at a 70% growth inhibitory concentration) [4, 6]: 60 µg/mL | IC 70 (70% growth inhibitory concentration) [4]: 193 µg/mL | improvement effect in the anticandidal activity against Candida mycelial growth [4]: improvement effect in the anticandidal activity against Candida mycelial growth was visible | improvement effect in the anticandidal activity from combined usage against Candida mycelial growth [4, 7]: remarkable improvement effect | improvement effect in the anticandidal activity from combined usage against Candida mycelial growth [4, 8]: remarkable improvement effect | MIC (minimum inhibitory concentration) ([5]; LYZOX and decanoic acid used in combination): 100 µg/mL | MIC (minimum inhibitory concentration) ([5]; used alone): 10000 µg/mL

CC1=CCC(O)(C(C)C)CC1 (stereo not shown) [Terpinen-4-ol, terpinen-4-ol]
viable bacteria count recovered from the oral cavity ([2]; T 10 mg/ml on tongue dorsum 3, 24, 27 h after inoculation): reduction in the viable bacterial count | IC (at a 70% growth inhibitory concentration) [4, 6]: 280 µg/mL | IC 70 (70% growth inhibitory concentration) [4]: 1900 µg/mL

CCCCCCCCCC(=O)O [Decanoic acid, decanoic acid]
Determination (mycelial growth rate taking control as 100) ([1]; 0.8 mg/ml): +++ (91 to 100%) | Determination (mycelial growth rate taking control as 100) ([1]; 0.9 mg/ml): +++ (91 to 100%) | Determination (mycelial growth rate taking control as 100) ([1]; 1 mg/ml): ++ (21 to 90%) | Determination (mycelial growth rate taking control as 100) ([1]; 1.5 mg/ml): − (0%) | Determination (mycelial growth rate taking control as 100) ([3]; 0.1 mg/ml): +++ (91 to 100%) | Determination (mycelial growth rate taking control as 100) ([3]; 0.2 mg/ml): +++ (91 to 100%) | Determination (mycelial growth rate taking control as 100) ([3]; 1 mg/ml): +++ (91 to 100%) | Determination (mycelial growth rate taking control as 100) ([3]; 2 mg/ml): + (1 to 20%) | IC (at a 70% growth inhibitory concentration) ([4]; LYZOX used in combination with capric acid (decanoic acid)): 25 µg/mL | IC 70 (70% growth inhibitory concentration) [4]: 480 µg/mL | MIC ([5]; TIMM2789, LYZOX and decanoic acid used in combination): 200 µg/mL | MIC ([5]; TIMM2789, used alone): 1500 µg/mL (≈ 8.71 mM)

Lysozyme: simple lysozyme, unbonded component of the complex
Determination (mycelial growth rate taking control as 100) ([1]; 2.5 mg/ml): +++ (91 to 100%) | Determination (mycelial growth rate taking control as 100) ([1]; 5 mg/ml): ++ (21 to 90%) | Determination (mycelial growth rate taking control as 100) ([3]; 0.05 mg/ml): +++ (91 to 100%) | Determination (mycelial growth rate taking control as 100) ([3]; 0.5 mg/ml): +++ (91 to 100%) | improvement effect in the anticandidal activity against Candida mycelial growth [4]: no improvement effect | improvement effect in the anticandidal activity from combined usage against Candida mycelial growth [4, 7]: no improvement effect | improvement effect in the anticandidal activity from combined usage against Candida mycelial growth [4, 8]: no improvement effect
